Measurements reported in ChEMBL document CHEMBL4706475, “Multiparameter Lead Optimization to Give an Oral Checkpoint Kinase 1 (CHK1) Inhibitor Clinical Candidate: (R)-5-((4-((Morpholin-2-ylmethyl)amino)-5-(trifluoromethyl)pyridin-2-yl)amino)pyrazine-2-carbonitrile (CCT245737)” (J Med Chem, 2016).
Values after ≈ are worked out from the molar mass of the structure shown. One block for each molecule: values may come before it.

Assays:
in vivo [1] = settings: mouse, iv, 10 mg/kg
in vivo [2] = settings: mouse, iv, 10 mg/kg; remark: listed apart in the source
in vivo [3] = settings: mouse, iv, 10 mg/kg; remark: listed apart in the source
in vivo [4] = settings: mouse, po, 10 mg/kg
in vivo [5] = settings: mouse, iv, 5 mg/kg
in vivo [6] = settings: mouse, iv, 5 mg/kg; remark: listed apart in the source
in vitro [7] = settings: mouse, liver microsomes
in vivo [8] = settings: mouse, iv, 5 mg/kg; remark: listed apart in the source
in vivo [9] = settings: mouse, po, 5 mg/kg
[10] = Metabolic stability in human liver microsomes in presence of glutathione; assay type: ADME, Microsome
in vivo [11] = settings: rat
in vitro [12] = settings: human, hepatocytes
[13] = Passive permeability in human Caco2 cells; assay type: ADME, cell-based; settings: caco-2
in vivo [14] = settings: NCr athymic, mouse, plasma, po, 300 mg/kg
[15] = Lipophilicity, logD of the compound at pH 7.4 by LC-MS/MS analysis; assay type: physicochemical; settings: buffer
[16] = mouse, in vivo, po, 10 mg/kg
[17] = Intrinsic clearance in dog hepatocytes at 3 uM assessed per million cells; assay type: ADME, cell-based, Canis lupus familiaris, Hepatocyte; settings: read-out: CLH
[18] = Metabolic stability in human liver microsomes in absence of glutathione; assay type: ADME, Microsome
in vivo [19] = settings: rat, po
[20] = Solubility of compound in pure water; assay type: physicochemical
in vitro [21] = settings: CD-1, mouse, hepatocytes
[22] = Solubility of compound in phosphate buffer at pH 6.5; assay type: physicochemical
[23] = Free drug level in NCr athymic mouse plasma xenografted with human HT-29 cells at 12.5 to 100 mg/kg, po administered as single dose measured at 24 hrs; assay type: ADME, organism-based; settings: in vivo, dose 12.5-100 mg/kg
[24] = Basicity constant, pKa of the compound by UV metric assay; assay type: physicochemical
[25] = Intrinsic clearance in rat hepatocytes at 3 uM assessed per million cells; assay type: ADME, cell-based, Hepatocyte; settings: read-out: CLH
in vivo [26] = settings: rat; remark: listed apart in the source

SMILES: N#Cc1cnc(Nc2cc(NC[C@H]3CNCCO3)c(-c3cccc(F)c3)cn2)cn1
- clearance (in vivo [1]): 113 mL/min/kg
- half-life (in vivo [2]): 4.3 h
- Vd (in vivo [3]): 26.8 L/kg
- bioavailability (in vivo [4]): 53%

SMILES: N#Cc1cnc(Nc2cc(NC[C@@H]3CNCCO3)c(C3CC3)cn2)cn1
- clearance (in vivo [1]): 112 mL/min/kg
- half-life (in vivo [2]): 8.1 h
- Vd (in vivo [3]): 43.9 L/kg
- bioavailability (in vivo [4]): 68%

SMILES: COC(=O)c1cnc(Nc2cnc(C#N)cn2)cc1NCCC1CCNCC1
- clearance (in vivo [5]): 141 mL/min/kg
- half-life (in vivo [6]): 11 h
- metabolised at 0.5 h (in vitro [7]): 26%
- Vd (in vivo [8]): 60.5 L/kg
- bioavailability (in vivo [9]): 44%

Next, values leading:

- clearance (in vivo [1]): 138 mL/min/kg
- half-life (in vivo [2]): 3.8 h
- Vd (in vivo [3]): 10.4 L/kg
- bioavailability (in vivo [4]): 10%
SMILES: CC(C)(O)C#Cc1cnc(Nc2cnc(C#N)cn2)cc1NC[C@@H]1CNCCO1

- Stabilty [10]: Stable
- clearance (in vivo [11]): 58.3 mL/min/kg
- clearance (in vivo [1]): 44.2 mL/min/kg
- half-life (in vivo [2]): 2.9 h
- hepatocyte CLint at 3 µM (in vitro [12]): 2.72 µL/min/1e6 cells
- permeability [13]: 25 10^-6 cm/s
- concentration at 24 h (in vivo [14]): 4 µM
- Vd (in vivo [3]): 9.25 L/kg
- logD [15]: 1.47
- F [16]: 105%
- hepatocyte CLint at 3 µM [17]: 55 µL/min/1e6 cells
- Stabilty [18]: Stable
- bioavailability (in vivo [19]): 38%
- solubility [20]: 90 µg/mL (≈ 237 µM)
- hepatocyte CLint at 3 µM (in vitro [21]): 25.7 µL/min/1e6 cells
- solubility [22]: 1500 µg/mL (≈ 3950 µM)
- Cp(f) [23]: 0.015 µM
- pKa [24]: 7.87
- hepatocyte CLint at 3 µM [25]: 43.4 µL/min/1e6 cells
- Vd (in vivo [26]): 4.6 L/kg
SMILES: N#Cc1cnc(Nc2cc(NC[C@H]3CNCCO3)c(C(F)(F)F)cn2)cn1 [SRA-737]
